Patent US8470868B2, “Formulation for the prevention of cardiovascular disease” (priority 2000, dated 2013)
Marks after values point to notes of the source that are not given here.

Columns and labels:
[1] = Prevalence of adverse effects in randomised placebo controlled trials (treated minus control); type: in vivo, human; settings: daily dose: hydrochlorothiazide 12.5 mg, atenolol 25 mg, enalapril 5 mg, aspirin 75 mg; for Prevalence of any adverse effect in randomised trials (treated minus control) / Prevalence of serious adverse effects (those that warranted withdrawal from randomised trial) (treated minus control): atorvastatin 10 mg, folic acid 0.8 mg
Source text: The dose of each medication has been chosen to maximise the ratio of benefit to hazard. It is recognised that some persons taking a combination of six drugs would develop adverse effects that were unacceptable. The adverse effects attributable to each of the component medications would be made clear to persons taking the combined formulation and alternative formulations omitting one or more of the component ingredients, with or without a substitute ingredient, would be available for persons unable to tolerate one component. […]

[2] = randomised trials, high risk and low risk persons; platelet function not measured; cited from earlier work
[3] = Expected reduction in risk of stroke from the risk factor change (cohort studies and randomised trials); type: in vivo, human; settings: daily dose: hydrochlorothiazide 12.5 mg, atenolol 25 mg, enalapril 5 mg, atorvastatin 10 mg, aspirin 75 mg, folic acid 0.8 mg
Source text: This combined estimate is based on the fact that the effects on the four different risk factors are unrelated and so the expected effects of changing each one will be independent of each other. This expectation is supported by two classes of evidence. […] For example the ratio of the risk of a disease event in persons with high blood pressure and the risk in persons with low blood pressure is similar, irrespective of the values of serum cholesterol and other risk factors. Second, some randomised clinical trials have used combinations of two of the drugs (for example beta blockers and aspirin) in patients with ischaemic heart disease and have shown that the effects are independent (that is, the relative risk in patients who took two drugs (compared with the risk in those who took none) was similar to the relative risk in persons taking one of the drugs multiplied by the relative risk in persons taking the other drug). Accordingly, the effect of the different drugs in combination in Table 3 has been calculated by multiplying the effects of each as shown in footnotes h and j.
The corresponding reductions in incidence of ischaemic heart disease and stroke are those to be expected from the blood pressure reductions, from published analyses of cohort studies and randomised controlled trials of blood pressure and ischaemic heart disease and stroke (references 1, 5).

[4] = atorvastatin 10 mg daily; cited from earlier work
[5] = cited from earlier work
[6] = Randomised controlled trials of folic acid: plasma homocysteine reduction; type: in vivo, human; settings: unpublished randomised controlled trial performed by the applicant

SMILES	Prevalence of any adverse effect in randomised trials (treated minus control) [1]	Prevalence of serious adverse effects (those that warranted withdrawal from randomised trial) (treated minus control) [1]	Effect on the incidence of heart attacks and stroke [2]	Expected reduction in risk of stroke [3]	Associated physiological variable (reduction produced by drug): serum cholesterol [4]	Commonest adverse effects [1]	Associated physiological variable (reduction produced by drug): plasma/serum homocysteine ([5]; folic acid 0.8 mg daily)	Maximum reduction in plasma homocysteine ([5]; meta-analysis of published trials, folic acid doses between 1 mg and 5 mg, maximum produced by 1 mg) [µmol/L]	Lowest folic acid dose that produces the maximum reduction in homocysteine [6] [mg]
CC(=O)Oc1ccccc1C(=O)O [Aspirin]	1.8%^b	0.7%^b	reduces the incidence of heart attacks and stroke in both high risk and low risk persons	–	–	–	–	–	–
CC(C)NCC(O)COc1ccc(CC(N)=O)cc1 (centres unmarked) [Atenolol]	5.6%^a	0.9%^a	–	–	–	–	–	–	–
CC(C)c1c(C(=O)Nc2ccccc2)c(-c2ccccc2)c(-c2ccc(F)cc2)n1CC[C@@H](O)C[C@@H](O)CC(=O)O [Atorvastatin]	0.1%	<0.1%	–	50%^d	(1.8 mmol/l	–	–	–	–
CCOC(=O)[C@H](CCc1ccccc1)N[C@@H](C)C(=O)N1CCC[C@H]1C(=O)O [Enalapril]	2.1%^a	0.2%^a	–	–	–	cough	–	–	–
Nc1nc2ncc(CNc3ccc(C(=O)N[C@@H](CCC(=O)O)C(=O)O)cc3)nc2c(=O)[nH]1 [Folic acid]	<0.1%	<0.1%	–	10%^g	–	–	(3 μmol/l	3	0.8
NS(=O)(=O)c1cc2c(cc1Cl)NCNS2(=O)=O [Hydrochlorothiazide]	1.4%^a	0.1%^a	–	–	–	–	–	–	–
